Among the data in patent US8546377B2 (AbbVie Inc., priority 2009, dated 2013) are Ki and EC50 values, retold here.

Experiment [1] concerns the target T1, human serotonin 5-HT2c receptor (Homo sapiens, UniProt P28335).
T1 construct: expressed in transfected cells; host or cells: CHO cells (membrane homogenate)
T1 sequence (P28335 33-458): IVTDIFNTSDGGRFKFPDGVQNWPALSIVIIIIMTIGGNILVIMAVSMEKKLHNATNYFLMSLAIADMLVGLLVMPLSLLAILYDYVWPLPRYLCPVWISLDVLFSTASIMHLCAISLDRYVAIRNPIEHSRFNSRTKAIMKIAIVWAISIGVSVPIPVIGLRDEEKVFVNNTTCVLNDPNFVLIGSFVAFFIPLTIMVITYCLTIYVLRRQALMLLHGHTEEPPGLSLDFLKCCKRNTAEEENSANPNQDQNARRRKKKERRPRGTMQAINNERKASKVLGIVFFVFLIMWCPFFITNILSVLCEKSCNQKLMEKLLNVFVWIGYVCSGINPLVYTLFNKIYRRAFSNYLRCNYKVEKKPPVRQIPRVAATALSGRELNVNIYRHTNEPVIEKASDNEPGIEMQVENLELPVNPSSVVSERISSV
Description: Human 5-HT2C receptor radioligand binding assay (agonist site, [125I](±)DOI). The settings on record: membranes of transfected CHO cells, 0.2 nM [125I](±)DOI, 15 minutes at 37° C. In a few lines: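 Affinity for the agonist site measured by radioligand binding in transfected CHO cells expressing the human receptor, using [125I](±)DOI.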

A further experiment deals with T2, 5HT2C receptors (Homo sapiens, UniProt P28335).
T2 sequence (P28335 33-458): T1 sequence (P28335 33-458)
Description: Human 5-HT2C functional assay in 1321N1 cells (intracellular calcium, FLIPR). Format: cell-based. Also on record: expressed in transfected cells; host or cells: 1321N1 cells. The settings on record: 1321N1 cells stably transfected, maximum calcium response; read-out: EC50 (μM), 5-HT2c Agonist Activity. A digest of the protocol:
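Intracellular calcium in 1321N1 cells stably transfected with human 5-HT2C, serum-starved overnight, Fluo4 AM-loaded with 1% probenecid. Compounds at 10^−10 to 10^−5 M final, alone or with 10^−9 M serotonin; peak FLIPR response. EC50 from four-parameter logistic fit; Emax as % of serotonin effect.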
Background: A change in cytosolic calcium serves as a functional read-out for many receptors and channels.

In general, Ki refers to the equilibrium dissociation constant of an inhibitor or competing ligand from its target. Lower therefore signals a stronger hold on the target. Broadly, the EC50 is the concentration needed to bring the measured effect to its halfway point. `O=C1NCC2CNCCN2c2ccc(NS(=O)(=O)c3ccccc3)cc21` (centres unmarked) [Example 48, N-(7-oxo-1,2,3,4,4a,5,6,7-octahydropyrazino[1,2-a][1,4]benzodiazepin-9-yl)benzenesulfonamide]: the Ki in experiment [1] was 27 µM. The EC50 at 5HT2C receptors was over 10 µM.
